This note sets out measurements from patent US11219607B2, “Methods for suppressing cancer-related cachexia” (Ohio State Innovation Foundation, priority 2013, dated 2022).

The subject of one assay is MuRF1 mRNA. The assay is described as follows: qPCR of gastrocnemius muscle, C-26 model: MuRF1. The format is in vivo, CD2F1 mice. The following applies: C-26 tumor-bearing mice, 15 days after tumor cell injection, tumor-bearing/vehicle 25.8±3.9-fold, mean±S.D. As for the experimental part:
(§1) Total RNA was isolated from homogenized gastrocnemius muscles (n=3/group) with TRIzol reagent (Life Technologies, Carlsbad, Calif.) and then purified using the RNAeasy Mini Kit (Qiagen, Valencia, Calif.). qRT-PCR was performed as described previously (42) by using the Bio-Rad CFX96 Real-Time PCR Detection System with iQ SYBR Green Supermix (Bio-Rad, Hercules, Calif.). RNA-seq library generation and data analysis were performed at The Ohio State University Comprehensive Cancer Center (OSUCCC) Nucleic Acid Shared Resource.
AR-42 was able to restore expression of Atrogin-1 (2.7±0.7-fold) and MuRF1 (1.1±0.2-fold) mRNA to basal levels […].
Background: Real-time PCR tracks product formation cycle by cycle.

A further assay has as its system LLC tumor-bearing mice. In words: LLC mouse model of cachexia, hindlimb muscle mass. The format is in vivo. The settings on record: LLC tumor-bearing C57BL/6 mice, 50 mg/kg p.o. every other day, day 6 to day 20. As for the experimental part:
In another aspect, subcutaneous tumors were established in male C57BL/6 mice (approximately 6 weeks of age; Harlan) by injection of 0.5×10^6 LLC cells into the right flank. Treatment with AR-42 and vehicle was performed as for the C-26 model beginning 6 days after cell injection. In both models, body weights and food consumption were monitored daily and tumor size was measured no less than every two days. Mice were fasted for 2 hours prior to sacrifice, at which time, hind limb muscles, heart, spleen, epididymal fat, and blood were collected and the weights of the solid tissues were measured. Muscle samples were frozen in liquid nitrogen-chilled 2-methylbutane and then stored at −80° C. until analysis.
To confirm that the anti-cachectic activity of AR-42 was not specific to the C-26 model, it was also evaluated in the LLC model. C57BL/6 mice bearing subcutaneous LLC tumors were treated with AR-42 (50 mg/kg, p.o., every other day) starting on day 6 after tumor cell injection, and continuing until day 20 when hind limb muscles were harvested at sacrifice.
To confirm that the anti-cachectic activity of AR-42 was not specific to the C-26 model, it was also evaluated in the LLC model. C57BL/6 mice bearing subcutaneous […] LLC tumors were treated with AR-42 (50 mg/kg, p.o., every other day) starting on day 6 after tumor cell injection, and continuing until day 20 when hind limb muscles were harvested at sacrifice.

For assay [1], the system named is leukemia inhibitory factor (LIF). In words: Serum cytokine profiling, C-26 model: LIF. The format is in vivo, CD2F1 mice. The settings on record: C-26 tumor-bearing mice, day 17; tumor-bearing/vehicle 19.7±9.3, tumor-free/vehicle 1.7±1.5. An excerpt: Gastrocnemius muscles and sera were collected at day 17 post-cell injection from each treatment group (n=8/group). Muscle was submitted to Metabolon, Inc. (Durham, N.C.) for metabolomic analysis of 270 metabolic intermediates via proprietary mass spectrometry platforms. Serum was submitted to Eve Technologies (Alberta, Canada) for analysis of 32 cytokines using a mouse cytokine array (32-plex panel).
To shed light onto the mechanism by which AR-42 mediated its anti-cachectic effect, sera and gastrocnemius muscle from vehicle- or AR-42-treated tumor-free and C-26 tumor-bearing mice were used for cytokine profiling analysis and whole transcriptome shotgun sequencing (RNA-seq), respectively.

In assay [2] the test system is IL-6 receptor alpha chain (IL-6Rα) mRNA. The assay is described as follows: qPCR of skeletal muscle, C-26 model: IL-6Rα. Format: in vivo, CD2F1 mice. The following applies: muscle of C-26 tumor-bearing mice; tumor-bearing/vehicle 13±1.4-fold. As to the method:
as §1
Cytokine profiles. […] AR-42 reduced IL-6 and LIF levels by 56% and 88%, respectively, in tumor-bearing mice (IL-6, 102±38 pg/ml; LIF, 3.8±1.6 pg/ml) compared to the vehicle-treated counterparts. In light of the ability of AR-42 to blunt cachexia-associated increases in IL-6, we examined the effect of AR-42 on intramuscular mRNA levels of IL-6 receptor alpha chain (IL-6Rα). […] AR-42 reduced this cachexia-induced increase by 85% (2.0±0.2-fold; n=10)(FIG. 5, lower).

For assay [3], the system named is C-26 tumor-bearing mice. The assay is described as follows: Delayed treatment in the C-26 model (body weight, tumor growth). The format is in vivo, CD2F1 mice. As to the method:
In one aspect, tumors were established by subcutaneous injection of C-26 cells (0.5×10^6 cells in 0.1 ml) into the right flank of male CD2F1 mice (approximately 6 weeks of age; Harlan Laboratories, Indianapolis, Ind.)(11). Tumor-bearing mice, as well as tumor-free mice serving as non-cachectic controls, were randomized into groups that were treated with either AR-42 (50 mg/kg, p.o. by gavage, every other day; Arno Therapeutics, Inc., Flemington, N.J.) or vehicle (0.5% methylcellulose (w/v) and 0.1% Tween-80 (v/v) in sterile water) starting 6 days after cell injection. To investigate the effect of delayed treatment, treatments with drug and/or vehicle were started 6, 10 and 12 days after cancer cell injection.
In those experiments, treatment was initiated early in the progression of cachexia when overt signs of wasting were undetectable. To investigate whether later initiation of AR-42 treatment remains protective against cachexia, C-26 tumor-bearing mice were treated with AR-42 (50 mg/kg, p.o., every other day) starting at 6, 10 and 12 days after tumor cell injection.

In assay [4] the test system is C-26 tumor-bearing mice. The assay is described as follows: Forelimb grip strength measurement, C-26 delayed treatment. The format is in vivo, CD2F1 mice. The following applies: all drug-treated groups (start day 6, 10, 12); day 15 and 16. As to the method: Forelimb grip strength was measured mice using a Digital Grip Strength Meter (Columbus Instruments, Columbus, Ohio). Five measurements were taken from each mouse, the average of which was designated as the mouse's grip strength.
To measure forelimb grip strength, each mouse was held by the base of its tail and lowered over the apparatus until its forepaws grasped the pull bar. The mouse was then gently pulled horizontally in a straight line away from the grip meter until the mouse released the bar, and the maximum force attained was recorded. Five measurements were taken from each mouse, the average of which was designated as the mouse's grip strength.

[5] abbreviates: 50 mg/kg p.o. every other day, vehicle 19%.

With `CC(C)[C@H](C(=O)Nc1ccc(C(=O)NO)cc1)c1ccccc1` [AR-42, (S)—N-hydroxy-4-(3-methyl-2-phenylbutanamido)benzamide], in the assay with MuRF1 mRNA, the “MuRF1 mRNA level relative to tumor-free/vehicle control” value turned out to be 1.1±0.2 fold. Also, the “tibialis anterior mass, % of non-cachectic control” value in the assay on LLC tumor-bearing mice (vehicle 80.3±4.0%) is on record as 93.4±3.9%. The “gastrocnemius mass, % of non-cachectic control” value in the assay on LLC tumor-bearing mice (vehicle 81.7±3.7%) was 92.2±3.5%. The “quadriceps mass, % of non-cachectic control” value in the assay with LLC tumor-bearing mice (vehicle 84.4±4.6%) came to 93.4±4.8%. Further, the “serum LIF level” value in assay [1] stood at 3.8 ± 1.6 pg/mL. Moreover, the “IL-6Rα mRNA level compared to tumor-free mice” value in assay [2] is listed as 2.0±0.2 fold. Further, in the assay on C-26 tumor-bearing mice [3] (setting [5]), the “loss of body weight (tumor excluded) by day 17, treatment starting at day 6” value amounted to 6%; the “loss of body weight (tumor excluded) by day 17, treatment starting at day 10” value came to 11%; the “loss of body weight (tumor excluded) by day 17, treatment starting at day 12” value worked out at 12%. For the same compound, in the assay on C-26 tumor-bearing mice [3] (treatment from day 6, 10 or 12), the “effect on tumor growth, delayed treatment experiment” value was “without appreciable effects”. In addition, the “forelimb muscle strength (handgrip dynamometry) relative to vehicle-treated control” value in the assay on C-26 tumor-bearing mice [4] was “helped preserve forelimb muscle strength”.
